{
  "source": "patent US20080207498A1",
  "about": "“Methods for Treating Alzheimer's Disease” (priority 2005, published 2008)",
  "key": {"purified human C1q": {"system": "purified human C1q", "test": "Inhibition of C1q binding, reverse ELISA with PAP immune complexes", "conditions": "for inhibition of C1q binding, ranking in words: comment on Table 1", "description": "(§1) For this reason, a “reverse ELISA” technique was used to assess binding of the Fc region to ligands that bind to immune complexed IgG Fc. In a reverse ELISA, the enzyme (e.g., HRP) is not covalently conjugated to the Fc portion of the secondary antibody. Rather, a preformed immune complex of peroxidase-rabbit (or mouse) anti-peroxidase IgG (“PAP” complex) is used. […] In these experiments, an Fc CH2-CH3 cleft binding ligand (e.g., purified human C1q) was bound to microwell plates. In the absence of competitor, PAP complexes bound to the immobilized ligand and the reaction between HRP and its substrate produced a signal. This signal was reduced by polypeptides and compounds provided herein that inhibited PAP binding to the immobilized ligand.\nPAP complexes were formed mixing 2 μl of rabbit anti-peroxidase (Sigma Chemicals, St. Louis, Mo.) with 50 μl of peroxidase (Sigma-Aldrich, St. Louis, Mo.) in 1 ml distilled water. PAP (100 μl) were pre-incubated with 100 μl of peptide for one hour, 100 μl were pre-incubated with 100 μl of peptide or human C1q (Quidel Corp., San Diego, Calif.) for one hour. The C1q/PAP and peptide/PAP mixtures (100 μl) were incubated with C1q coated plates for 30 minutes. After washing, plates were incubated with ATBS (Quidel Corp.) for 15 minutes and read at 405 nm."}, "[1]": {"system": "human wt tau protein (441 residues)", "test": "Inhibition of immune complexed IgG binding to wt tau, reverse ELISA", "conditions": "for Wt tau protein (read at 405 nm): PAP pre-incubated with peptide one hour, 60 minutes on tau coated plates (16.7 μg/ml), positive control 0.695, substrate only 0.060", "description": "as §1\nPAP complexes were formed by mixing 2 μl of rabbit anti-peroxidase with 50 μl of peroxidase in 1 ml distilled water. PAP (100 μl) were pre-incubated with 100 μl of peptide for one hour. Control PAP (200 μl) also was incubated for one hour. 100 μl of either PAP or PAP/peptide was added to Falcon microtiter plates that had been coated for 24 hours with 16.7 μg/ml human wt tau protein (441 residues; Sigma-Aldrich). The PAP or peptide/PAP mixtures (100 μl) were added after one hour to tau coated plates and incubated for 60 minutes. After washing, plates were incubated with ATBS for 15 minutes, and read at 405 nm."}, "[2]": {"system": "human wt β amyloid peptide 1-40", "test": "Inhibition of immune complexed IgG binding to wt β-amyloid peptide, reverse ELISA", "conditions": "for Wt 1-40 β-amyloid peptide (read at 405 nm): PAP pre-incubated with peptide one hour, 60 minutes on β-amyloid coated plates (33 μg/ml), positive control 3.278, substrate only 0.061", "description": "as §1\nDifferent fragments of the Aβ peptide contribute to the amyloid plaques pathognomic for AD, and these Aβ fragments appear to stimulate microglial activation and subsequent AD neuropathology. Thus, experiments were conducted to test Aβ 1-40 for binding to immune complexes, and to determine whether the inhibitors described herein can inhibit binding of PAP immune complexes to Aβ peptide. PAP complexes were prepared by mixing 2 μl of rabbit anti-peroxidase with 50 μl of peroxidase in 1 ml distilled water. PAP (100 μl) were pre-incubated with 100 μl of peptide for one hour. Control PAP (200 μl) also were incubated for one hour, and 100 μl of either PAP or PAP/peptide was added to Falcon microtiter plates that had been coated for 24 hours with 33 μg/ml human wt β amyloid peptide 1-40 (amyloid precursor protein (APP) fragment 1-40; Sigma-Aldrich) having the sequence […]Ans-Lys-Gly-Ale-[…](SEQ ID NO:39). The PAP or peptide/PAP mixtures were incubated on the β-amyloid peptide coated plates for 60 minutes. After washing, plates were incubated with ATBS for 15 minutes and read at 405 nm."}, "FcγIII": {"system": "FcγIII", "test": "Inhibition of FcR binding, reverse ELISA with PAP immune complexes", "conditions": "PAP pre-incubated with peptide one hour, one hour on FcγR coated plates; lower OD = more inhibition; positive control 1.588", "description": "as §1\n(§2) Once the reverse ELISA protocol was established using the C1q assay, the assay was redesigned using […], FcγIIb, and FcγIII in place of C1q. Highly purified FcγIIa, FcγIIb and FcγIII were immunoadsorbed onto plastic microwells. After optimizing the FcγR reverse ELISA system, simple competitive inhibition experiments using polypeptides provided herein were conducted to investigate their ability to inhibit binding of immune complexes to purified FcγR.\n(§3) Falcon microtiter plates were coated with 1:10 dilutions of highly purified FcγIIa, FcγIIb and FcγIII and incubated for 24 hours. The plates were washed and then blocked with 5×BSA blocking solution (Alpha Diagnostic International, San Antonio, Tex.) for 24 hours. PAP immune complexes were formed as described above. PAP (100 μl) were pre-incubated with 100 μl of peptide for one hour. PAP/peptide mixtures were added to the FcγR coated plates and incubated for one hour. After washing, plates were incubated with ABTS substrate for 15 minutes and read at 405 nm."}, "FcγIIa": {"system": "FcγIIa", "test": "Inhibition of FcR binding, reverse ELISA with PAP immune complexes", "conditions": "PAP pre-incubated with peptide one hour, one hour on FcγR coated plates; lower OD = more inhibition; positive control 1.599", "description": "as §1, §2, §3"}, "FcγIIb": {"system": "FcγIIb", "test": "Inhibition of FcR binding, reverse ELISA with PAP immune complexes", "conditions": "PAP pre-incubated with peptide one hour, one hour on FcγR coated plates; lower OD = more inhibition; positive control 1.394", "description": "as §1, §2, §3"}, "FcR": {"system": "FcR", "test": "Inhibition of FcR binding to PAP", "conditions": "comment on Table 2", "method": "as §2, §3"}, "IgG Fc": {"system": "IgG Fc", "test": "Binding of SEQ ID NO:16 to IgG Fc, alanine substitution", "conditions": "alanine substitution of SEQ ID NO:16 Val-13 or Trp-14"}},
  "data": [
    {"sequence": "APPCARHLGELVWCT", "values": [
      {"measurement": "inhibition of C1q binding, ranking in words", "setting": "purified human C1q", "result": "next best result"}
    ]},
    {"sequence": "DCAWHLGELVWCT", "values": [
      {"measurement": "OD 405 nm", "setting": "purified human C1q; PAP pre-incubated with peptide or C1q for one hour, 30 minutes on C1q coated plates, lower OD = more inhibition, positive control 2.355", "result": 1.100},
      {"measurement": "Wt tau protein (read at 405 nm)", "setting": "[1]", "result": 0.322},
      {"measurement": "Wt 1-40 β-amyloid peptide (read at 405 nm)", "setting": "[2]", "result": 0.151},
      {"measurement": "inhibition of human wt β amyloid peptide binding to PAP, ranking in words", "setting": "[2]; comment on Table 4", "result": "greatest inhibition"}
    ]},
    {"sequence": "DCAFHLGELVWCT", "values": [
      {"measurement": "FcγIII (read at 405 nm)", "setting": "FcγIII", "result": 0.810},
      {"measurement": "FcγIIa (read at 405 nm)", "setting": "FcγIIa", "result": 0.660},
      {"measurement": "FcγIIb (read at 405 nm)", "setting": "FcγIIb", "result": 0.510}
    ]},
    {"sequence": "APPDCAWHLGELVWCT", "values": [
      {"measurement": "inhibition of C1q binding, ranking in words", "setting": "purified human C1q", "result": "greatest inhibition of C1q binding, almost equaling C1q itself"},
      {"measurement": "FcγIII (read at 405 nm)", "setting": "FcγIII", "result": 0.670},
      {"measurement": "Wt tau protein (read at 405 nm)", "setting": "[1]", "result": 0.059},
      {"measurement": "inhibition of human wt tau protein binding to PAP, ranking in words", "setting": "[1]; comment on Table 3", "result": "greatest inhibition"},
      {"measurement": "Wt 1-40 β-amyloid peptide (read at 405 nm)", "setting": "[2]", "result": 0.885},
      {"measurement": "inhibition of FcR binding to PAP, ranking in words", "setting": "FcR", "result": "greatest inhibition"},
      {"measurement": "ΔΔG, disruption of binding", "setting": "IgG Fc", "result": "≥ 2.0", "unit": "kcal/mol"}
    ]},
    {"sequence": "APPCAWHLGELVWCT", "values": [
      {"measurement": "FcγIII (read at 405 nm)", "setting": "FcγIII", "result": 0.530}
    ]},
    {"sequence": "APPCAFHLGELVWCT", "values": [
      {"measurement": "FcγIII (read at 405 nm)", "setting": "FcγIII", "result": 0.880},
      {"measurement": "FcγIIb (read at 405 nm)", "setting": "FcγIIb", "result": 0.380}
    ]}
  ]
}
